{
  "source": "paper PMC11374673",
  "about": "“Discovery of isoquinoline sulfonamides as allosteric gyrase inhibitors with activity against fluoroquinolone-resistant bacteria” (Nature Chemistry, 2024)",
  "key": {"E. coli W3110 [1]": {"tested_on": "E. coli W3110", "assay": "MIC by broth microdilution", "assay_type": "cell-based, Escherichia coli", "conditions": "Escherichia coli", "procedure,_shortened": "(§1)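 Exponential-phase cultures (OD600 0.5, 37 °C aerobic), diluted 100-fold in CAMHB, were added to twofold compound dilution series. Keio strains grown with 50 µg ml^−1 kanamycin. Plates incubated overnight at 37 °C, shaking at 600 r.p.m.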"}, "HepG2": {"tested_on": "HepG2", "assay": "Cytotoxicity assay (MTT)", "assay_type": "cell-based, human", "conditions": "Homo sapiens, HepG2, 24 h, MTT, 24 h"}, "HEK293T": {"tested_on": "HEK293T", "assay": "Cytotoxicity assay (MTT)", "assay_type": "cell-based, human", "conditions": "Homo sapiens, HEK-293T, 24 h, MTT", "procedure,_shortened": "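HEK293T cells, maintained at 37 °C and 7% CO2 in Dulbecco’s modified Eagle medium with GlutaMax, antibiotics and serum, were plated in clear 96-well plates in 100 µl medium containing 1% fetal bovine serum and left 24 h to attach. After 24 h compound exposure, MTT (0.40 mg ml^−1) was added for 2 h. Formazan was dissolved in 100 µl DMSO and absorbance measured at 570 nm. Background-corrected IC50 values came from variable-slope non-linear fits.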"}, "[2]": {"tested_on": "E. coli BW25113 and single-gene knockouts", "assay": "MIC on E. coli strains of the Keio collection", "assay_type": "cell-based, Escherichia coli", "conditions": "Escherichia coli, BW25113, read-out: MIC E. coli BW25113, parent strain", "procedure": "(§2) MIC was determined by broth microdilution. Single-colony cultures were grown to exponential phase (OD600 of 0.5) aerobically at 37 °C. In case of strains from the Keio collection, 50 µg ml^−1 kanamycin was supplemented to the media to ascertain a homogeneous population. The bacterial suspensions were diluted 100-fold in CAMHB and 50 µl was added to a twofold serial dilution series of test compounds (50 µl per well) in polypropylene 96-well microtitre plates to reach a volume of 100 µl. The plates were sealed with breathable membranes and incubated overnight at 37 °C with constant shaking (600 r.p.m.). The MIC was determined as the lowest concentration at which no visible bacterial growth was observed as compared with the inoculum controls from the median of a minimum of triplicates."}, "A. baumannii ATCC BAA747": {"tested_on": "A. baumannii ATCC BAA747", "assay": "MIC by broth microdilution", "assay_type": "cell-based", "conditions": "Acinetobacter baumannii, ATCCBAA747; read-out: MIC A. baumannii ATCC BAA747", "procedure": "as §2"}, "[3]": {"tested_on": "S. aureus ATCC 29213 / ATCC BAA1717", "assay": "MIC by broth microdilution", "assay_type": "cell-based", "conditions": "Staphylococcus aureus", "procedure": "as §2"}, "P. aeruginosa ATCC 27853": {"tested_on": "P. aeruginosa ATCC 27853", "assay": "MIC by broth microdilution", "assay_type": "cell-based", "conditions": "Pseudomonas aeruginosa, ATCC27853; read-out: MIC P. aeruginosa ATCC 27853", "procedure": "as §2"}, "K. pneumoniae ATCC 29665": {"tested_on": "K. pneumoniae ATCC 29665", "assay": "MIC by broth microdilution", "assay_type": "cell-based, Klebsiella pneumoniae", "conditions": "Klebsiella pneumoniae, ATCC29665, read-out: MIC K. pneumoniae ATCC 29665", "procedure,_shortened": "as §1"}, "E. coli W3110 [4]": {"tested_on": "E. coli W3110", "assay": "H-89 derivatives rescreen, 50 µM", "assay_type": "cell-based", "conditions": "Escherichia coli, H-89 derivative rescreen, highest 50 µM", "procedure": "From glycerol stocks, E. coli W3110 was cultured on blood agar plates (PB5039A, Thermo Scientific) by overnight (18 ± 2 h) aerobic incubation at 37 °C. A single colony was transferred to tryptic soy broth (TSB, 02-200-500, Scharlab). The cultures were grown to exponential phase (OD600 of 0.5) at 37 °C. The bacterial suspensions were diluted 200-fold in cation-adjusted Mueller–Hinton broth (CAMHB) and 99 µl was added to a library of test compounds (1 µl 10 mM DMSO stock, per well in technical duplicates) in polypropylene 96-well microtitre plates to reach a volume of 100 µl and a final concentration of 100 µM for each test compound and a maximum of 1% DMSO. […] Screening hits were selected from the wells where no visible bacterial growth was observed, as compared with the inoculum controls containing 1% DMSO. The follow-up screen of H-89 derivatives was performed under similar conditions with a final concentration of 50 µM."}, "[5]": {"tested_on": "60-resistant (60-r) isolates of E. coli W3110", "assay": "microbe, parasite or virus in culture", "assay_type": "cell-based, Escherichia coli", "conditions": "Escherichia coli", "procedure": "as §2\nThe plates were incubated at 37 °C and checked for growth after 24 and 48 h. […] Nine colonies with an increased MIC were selected for further analysis and stored as glycerol stocks."}, "E. coli ATCC 25922": {"tested_on": "E. coli ATCC 25922", "assay": "MIC by broth microdilution", "assay_type": "cell-based", "conditions": "Escherichia coli, ATCC25922; read-out: MIC E. coli ATCC 25922", "procedure": "as §2, with “r.p.m.).” for “r.p.m.). The MIC was determined as the lowest concentration at which no visible bacterial growth was observed as compared with the inoculum controls from the median of a minimum of triplicates.”"}},
  "note": "Read-outs that look alike come from different tables or passages of the source.",
  "data": [
    {"smiles": "O=S(=O)(NCCNCc1ccc(-c2cccnc2)cc1)c1cccc2cnccc12", "note": "[Compound 1]", "values": [
      {"measurement": "MIC", "setting": "E. coli W3110 [1]; W3110, WT, broth microdilution, read-out: MIC E. coli W3110", "result": 6.25, "unit": "µM"},
      {"measurement": "MIC", "setting": "E. coli W3110 [1]; W3110, follow-up of the 12 library hits, read-out: MIC E. coli", "result": 6.25, "unit": "µM"},
      {"measurement": "MIC", "setting": "E. coli W3110 [1]; W3110, read-out: MIC E. coli", "result": 2.6, "unit": "µg/mL"},
      {"measurement": "IC50", "setting": "HepG2", "result": "> 50", "unit": "µM"},
      {"measurement": "IC50", "setting": "HEK293T", "result": "> 50", "unit": "µM"},
      {"measurement": "MIC", "setting": "[2]", "result": 12.5, "unit": "µM"},
      {"measurement": "MIC", "setting": "A. baumannii ATCC BAA747", "result": "> 50", "unit": "µM"},
      {"measurement": "MIC", "setting": "[3]; read-out: MIC S. aureus ATCC 29213", "result": "> 50", "unit": "µM"},
      {"measurement": "MIC", "setting": "[3]; read-out: MIC S. aureus ATCC BAA1717", "result": "> 50", "unit": "µM"},
      {"measurement": "MIC", "setting": "P. aeruginosa ATCC 27853", "result": "> 50", "unit": "µM"},
      {"measurement": "MIC", "setting": "K. pneumoniae ATCC 29665", "result": 12.5, "unit": "µM"},
      {"measurement": "MIC", "setting": "E. coli W3110 [4]", "result": 6.25, "unit": "µM"},
      {"measurement": "MIC", "setting": "[5]; E. coli W3110 60-r1", "result": "> 100", "unit": "µM"},
      {"measurement": "MIC", "setting": "[5]; E. coli W3110 60-r3", "result": 100, "unit": "µM"},
      {"measurement": "MIC", "setting": "[5]; E. coli W3110 60-r6", "result": "> 100", "unit": "µM"},
      {"measurement": "MIC", "setting": "E. coli ATCC 25922", "result": 25, "unit": "µM"}
    ]}
  ]
}
